In US9034871B2, “Compounds for Alzheimer's disease” (priority 2004, dated 2015):
Where two headings read alike, the source gives them in different places.

Test system: Aβ42
Test: Detection of secreted Aβ42 with Biosource ELISA kit in H4 cells expressing APP695
Format: cell-based
Conditions: read-out: Ab42 IC50
Method: The present invention provides compositions and methods for lowering Aβ42 levels. To test whether compounds and compositions are capable of modulating Aβ levels, a sandwich enzyme-linked immunosorbent assay (ELISA) is employed to measure secreted Aβ (Aβ42 and/or Aβ40) levels. In this example, H4 cells expressing wide type APP695 are seeded at 200,000 cells/per well in 6 well plates, and incubated at 37 degree C. with 5% CO2 overnight. Cells are treated with 1.5 ml medium containing vehicle (DMSO) or a test compound at 1.25 μM, 2.5 μM, 5.0 μM and 10.0 μM (as well as other concentration if desirable) concentration for 24 hours or 48 hours. The supernatant from treated cells is collected into eppendorf tubes and frozen at −80 degree C. for future analysis.
The amyloid peptide standard is reconstituted and frozen samples are thawed. The samples and standards are diluted with appropriate diluents and the plate is washed 4 times with Working Wash Buffer and patted dry on a paper towel. 100 μL per well of peptide standards, controls, and dilutions of samples to be analyzed is added. The plate is incubated for 2 hours while shaking on an orbital plate shaker at RT. The plate is then washed 4 times with Working Wash Buffer and patted dry on a paper towel. Detection Antibody Solution is poured into a reservoir and 100 μL /well of Detection Antibody Solution is immediately added to the plate. The plate is incubated at RT for 2 hours while shaking and then washed four times with Working Wash Buffer and patted dry on a paper towel. Secondary Antibody Solution is then poured into a reservoir and 100 μL /well of Secondary Antibody Solution is immediately added to the plate. The plate is incubated at RT for 2 hours with shaking, washed 5 times with Working Wash Buffer, and patted dry on a paper towel.
100 μL of stabilized chromogen is added to each well and the liquid in the wells begins to turn blue. The plate is incubated for 30 minutes at room temperature and in the dark. 100 μL of stop solution is added to each well and the plate is tapped gently to mix resulting in a change of solution color from blue to yellow. The absorbance of each well is read at 450 nm having blanked the plate reader against a chromogen blank composed of 100 μL each of stabilized chromogen and stop solution. The plate is read within 2 hours of adding the stop solution. The absorbance of the standards is plotted against the standard concentration and the concentrations of unknown samples and controls are calculated.
These compounds were synthesized via the indicated synthetic route. Ab42 IC50 (uM) refers to IC50 value for Ab42 lowering in e.g., the assay described in Example 6.

[1] = Ab42 lowering, cell based assay
[2] = IC50 value for Ab42 lowering in e.g. the assay described in Example 6

IC50 [1] [µM] | IC50 [2] [µM] | Structure (SMILES)
40 |  | Cc1onc(-c2ccccc2)c1-c1cc2c3ccccc3ccc2n1-c1cccc(C(=O)O)c1 [3-[2-(5-methyl-3-phenylisoxazol-4-yl)-benzo[e]indol-3-yl] benzoic acid]
21 |  | O=C(O)c1ccc(-n2c(-c3ccc(C(F)(F)F)cc3)cc3c4ccccc4ccc32)o1 [5-[2-(4-trifluoromethylphenyl)-benzo[e]indol-3-yl]-furan-2-carboxylic acid]
> 100 |  | O=C(O)c1cccc(-c2cc3c4ccccc4ccc3n2-c2ccoc2)c1 [3-(3-furan-3-yl-3H-benzo[e]indol-2-yl) benzoic acid]
9.6 |  | c1ccc(-c2cc(-c3cc4c(n3-c3cccc(-c5nn[nH]n5)c3)CCc3ccccc3-4)on2)cc1 [drawing 1708, 2-(3-phenylisoxazol-5-yl)-3-[3-(2H-tetrazol-5-yl)-phenyl]-4,5-dihydro-3H-benzo[e]indole]
0.56 |  | O=C(O)c1cccc(-n2c(-c3cc4ccccc4o3)cc3c2CCc2ccccc2-3)c1 [3-(2-benzofuran-2-yl-4,5-dihydrobenzo[e]indol-3-yl) benzoic acid]
1 |  | Cc1onc(-c2ccccc2)c1-c1cc2c3ccccc3ccc2n1-c1ccc(CCCC(=O)O)cc1 [4-{4-[2-(5-methyl-3-phenylisoxazol-4-yl)-benzo[e]indol-3-yl]-phenyl} butyric acid]
> 100 |  | CC1CCc2c(cc(-c3ccccc3)n2-c2ccc(C(=O)O)o2)C1 (stereo not drawn) [5-(5-methyl-2-phenyl-4,5,6,7-tetrahydroindol-1-yl) furan-2-carboxylic acid]
3.7 |  | CCC(C)(C)C1CCc2c(cc(-c3cc4ccccc4o3)n2-c2cccc(C(=O)O)c2)C1 (stereo not drawn) [3-[2-benzofuran-2-yl-5-(1,1-dimethylpropyl) 4,5,6,7-tetrahydroindol-1-yl] benzoic acid]
1.6 |  | O=C(O)c1ccc(-n2c(-c3ccc(Cl)c(Cl)c3)cc3c2CCC(C(F)(F)F)C3)o1 (stereo not drawn) [5-[2-(3,4-dichlorophenyl)-5-trifluoromethyl 4,5,6,7-tetrahydroindol-1-yl]-furan-2-carboxylic acid]
44 |  | O=C(O)c1ccc(-n2c(-c3cc4ccccc4o3)cc3c2CCC(C(F)(F)F)C3)o1 (stereo not drawn) [5-(2-benzofuran-2-yl-5-trifluoromethyl-4,5,6,7-tetrahydroindol-1-yl)-furan-2-carboxylic acid]
> 100 |  | CC1CCc2c(cc(-c3ccccc3)n2-c2nc(C(=O)O)cs2)C1 (stereo not drawn) [2-(5-methyl-2-phenyl-4,5,6,7-tetrahydroindol-1-yl) thiazole-4-carboxylic acid]
 | 27 | O=C(O)Cc1ccccc1-n1c(-c2ccccc2)cc2c1CCc1ccccc1-2 [Compound 92, [2-(2-phenyl-4,5-dihydrobenzo[e]indol-3-yl)-phenyl] acetic acid]
> 100 |  | O=C(O)c1ccc(-c2cc3c4ccccc4ccc3n2-c2ccoc2)cc1 [4-(3-furan-3-yl-3H-benzo[e]indol-2-yl) benzoic acid]
16.5 |  | O=C(O)c1ccc(-n2c(-c3ccccc3)cc3c2CCC(C(F)(F)F)C3)o1 (stereo not drawn) [5-(2-phenyl-5-trifluoromethyl 4,5,6,7-tetrahydroindol-1-yl)-furan-2-carboxylic acid]
33 |  | O=C(O)c1cccc(-n2c(-c3ccc(-c4ccc(Cl)cc4Cl)o3)cc3c4ccccc4ccc32)c1 [3-{2-[5-(2,4-dichlorophenyl)-furan-2-yl]-benzo[e]indol-3-yl} benzoic acid]
20 |  | O=C(O)c1cccc(-n2c(-c3ccc4c(c3)OCO4)cc3c4ccccc4ccc32)c1 [3-(2-benzo[1,3]dioxol-5-yl-benzo[e]indol-3-yl) benzoic acid]
31 |  | Cc1onc(-c2ccccc2)c1-c1cc2c3ccccc3ccc2n1-c1cccc(-c2nn[nH]n2)c1
 | 30 | O=C(O)CCCc1ccc(-n2c(-c3ccccc3)cc3c2CCCC3)cc1 [Compound 86, 4-[4-(2-phenyl 4,5,6,7-tetrahydroindol-1-yl)-phenyl] butyric acid]
